# Assay results: US7071219B2, “Mono-acylated o-phenylendiamines derivatives” (Hoffmann-La Roche Inc., priority 2004, dated 2006)
# Tested on: histone deacetylase (HDAC)
# Assay: cellular acetylation assay (histone acetylation ELISA in PC3 cells)
# Format: cell-based, human
# Conditions: compound 1 μM, 24 h incubation, ELISA with antibodies against acetylated histone H3 or H4
# Procedure: In this assay, acetylation of histones is monitored in PC3 cells. High acetylation correlates with inhibition of histone deacetylase by compounds. Cell viability is monitored in parallel to estimate the cytotoxicity of compounds.
# PC3 cells, a human prostate carcinoma cell line, are seeded as 1800 cells per well of a 384-well microtiterplate in RPMI 1640 (including 5% FCS, 2 mM glutamine and pen/strep).
# After 48 h at 37° C. pre-diluted compounds are added to a final concentration of 1 uM. Compounds are pre-diluted in dimethyl sulfoxide (DMSO) resulting in a final concentration of DMSO of 0.5% per well.
# After 24 h incubation cell viability is determined by adding cell proliferation reagent WST-1 (Roche Molecular Biochemicals). Another 60 min later the optical density (OD) is measured (450 nm versus 690 nm).
# After measurement the cell layer is prepared for the ELISA reaction. Medium is aspirated and cells are fixed in ethanol at −20° C. for 60 min. After washing with PBS/Tween the blocking solution (PBS/5% FCS/Tween) is added and the cell layer is washed again. Antibodies against acetylated histone H3 or H4 (rabbit polyklonal IgG, Upstate Biotechnologie) are added at a dilution of 1:200 for 60 min at 37° C. As a second antibody goat anti rabbit IgG (H+L) humanIgG adsorbed-HRP conjugate (Dako) is used (1:2000 diluted). Cells are washed 3 times and the peroxidase substrate ABTS is allowed to react for 30–60 min at 37° C. The OD is measured at 405 nm.
# The percentage of acetylation is calculated after substraction of blank O.D.s: […]
row,Compound,"cell acetylation (PC3, 1 μM) [% of control]"
1,"CCCC(C)NC(=O)c1ccc(C(=O)Nc2ccccc2N)s1 (stereo not shown) [Example 1-1, Thiophene-2,5-dicarboxylic acid 2-[(2-amino-phenyl)-amide]5-[(1-methyl-butyl)-amide]]",137.2 % of control
2,"CCCCN(CCCC)CCCNC(=O)c1ccc(C(=O)Nc2ccccc2N)s1 [Example 1-4, Thiophene-2,5-dicarboxylic acid 2-[(2-amino-phenyl)-amide]5-[(3-dibutylamino-propyl)-amide]]",195.7 % of control
3,"CCCCCC(C)NC(=O)c1ccc(C(=O)Nc2ccccc2N)s1 (stereo not shown) [Example 1-6, Thiophene-2,5-dicarboxylic acid 2-[(2-amino-phenyl)-amide]5-[(1-methyl-hexyl)-amide]]",122.9 % of control
4,"CN(C)CC(C)(C)CNC(=O)c1ccc(C(=O)Nc2ccccc2N)s1 [Example 1-17, Thiophene-2,5-dicarboxylic acid 2-[(2-amino-phenyl)-amide]5-[(3-dimethylamino-2,2-dimethylpropyl)-amide]]",149.8 % of control
5,"CN(C)CCNC(=O)c1ccc(C(=O)Nc2ccccc2N)s1 [Example 1-18, Thiophene-2,5-dicarboxylic acid 2-[(2-amino-phenyl)-amide]5-[(2-dimethylaminoethyl)-amide]]",233.9 % of control
6,"CCCCN(C)C(=O)c1ccc(C(=O)Nc2ccccc2N)s1 [Example 1-19, thiophene-2,5-dicarboxylic acid 2-[(2-amino-phenyl)-amide]5-(butyl-methyl-amide)]",118.8 % of control
7,"CCC(C)NC(=O)c1ccc(C(=O)Nc2ccccc2N)s1 (stereo not shown) [Example 1-24, Thiophene-2,5-dicarboxylic acid 2-[(2-amino-phenyl)-amide]5-sec-butylamide]",211.2 % of control
8,"CCC(C)CNC(=O)c1ccc(C(=O)Nc2ccccc2N)s1 (stereo not shown) [Example 1-35, Thiophene-2,5-dicarboxylic acid 2-[(2-amino-phenyl)-amide]5-[(2-methyl-butyl)-amide]]",135.4 % of control
9,"NC(=O)c1ccc(C(=O)Nc2ccccc2N)s1 [Example 1-44, thiophene-2,5-dicarboxylic acid 2-amide 5-[(2-amino-phenyl)-amide]]",185.6 % of control
10,"CC(C)N(CCNC(=O)c1ccc(C(=O)Nc2ccccc2N)cn1)C(C)C [Example 2-1, Pyridine-2,5-dicarboxylic acid 5-[(2-amino-phenyl)-amide]2-[(2-diisopropylamino-ethyl)-amide]]",206.6 % of control
11,"CC(C)N(CCNC(=O)c1ccc(C(=O)Nc2ccccc2N)nc1)C(C)C [Example 3-1, pyridine-2,5-dicarboxylic acid 2-[(2-amino-phenyl)-amide]5-[(2-diisopropylamino-ethyl)-amide]]",244.8 % of control
12,"CN(C)CCNC(=O)c1ccc(C(=O)Nc2ccccc2N)nc1 [Example 3-5, pyridine-2,5-dicarboxylic acid 2-[(2-amino-phenyl)-amide]5-[(2-dimethylamino-ethyl)-amide]]",154.6 % of control
13,"CCOC(=O)CC(C)NC(=O)c1ccc(C(=O)Nc2ccccc2N)nc1 (stereo not shown) [Example 3-9, 3-{[6-(2-amino-phenylcarbamoyl)-pyridine-3-carbonyl]-amino}-butyric acid ethyl ester]",211.6 % of control
14,"CCCCN(CCCC)CCCNC(=O)c1ccc(C(=O)Nc2ccccc2N)nc1 [Example 3-20, pyridine-2,5-dicarboxylic acid 2-[(2-amino-phenyl)-amide]5-[(3-dibutylamino-propyl)-amide]]",223.8 % of control
15,"CC(C)N(CCNC(=O)c1ccc(C(=O)Nc2ccccc2N)cc1)C(C)C [Example 4-1, N-(2-amino-phenyl)-N′-(2-diisopropylamino-ethyl)-terephthalamide]",399.3 % of control
16,"CC(=O)Nc1ccc(C(=O)Nc2ccccc2N)cc1 [Reference Compound, 4-acetylamino-N-(2-aminophenyl)-benzamide, reference compound]",152 % of control
